Usually pIC50 stands for −log10 of the IC50, conventionally taken in molar units.

pIC50: −log10 of the molar value.

One test relates to L-selectin. The experiment in a line: ELISA: inhibition of L-selectin-IgG chimera binding to 2,3 sLe^x glycolipid. As to conditions: for pIC50: inhibition of binding to 2,3 sLex glycolipid; for inhibition of L-selectin binding to 2,3 sLe^x glycolipid: FIG. 5 and FIG. 6, result in words. Details: species or system human. The text has this:
(§1) An ELISA assay is preferably used that employs recombinant fusion proteins composed of extracellular portions of the human selectins joined to human immunoglobulin heavy chain CH3, CH2, and hinge regions. See, for example, Walz et al., Science (1990) 250:1132; Aruffo et al., Cell (1991) 67:35; Aruffo et al., Proc. Natl. Acad. Sci. USA. (1992) 89:2292. The assay is well known in the art, and generally consists of the following three steps:
(§2) I. 2,3 sLe^x glycolipid (25 picomole/well) was transferred into microtiter wells as solutions and then evaporated off. Excess, which remained unattached, was washed off with water. The wells were then blocked with 5% BSA at room temperature for an hour and then washed with PBS containing 1 mM calcium.
(§3) II. Preparation of "multivalent" receptor of the Selectin-lgG chimera was carried out by combining the respective chimera (1 μg/mL) with biotin labelled goat F(ab')2 anti-human IgG (Fc specific) and streptavidin-alkaline phosphatase diluted 1:1000 in 1% BSA-PBS (1 mM calcium) and incubating at 37° C. for 15 min. This allowed the soluble multivalent receptor complex to form. III. Potential inhibitors such as the compounds of formula I or II were allowed to react with the soluble receptor at 37° C. for 45 min. This test assumes that optimal binding, between the soluble phase receptor complex and the inhibitor (non natural ligand), would have occurred within this time frame. This solution was then placed in the microtiter wells that were prepared in step I. The plate was incubated at 37° C. for 45 minutes to allow the soluble receptor to bind to its natural ligand. In the presence of a strong inhibitor only a few receptors should be free to bind to the microtiter plate coated with the natural ligand.
(§4) The positive control is the signal produced by the soluble receptor when it is allowed to react with 2,3 sLe^x glycolipid in the microtiter wells in the absence of any inhibitor. This positive control was considered 100% binding. The signal produced by the receptor that had been previously treated with an inhibitor (recorded as O.D.), was divided by the signal produced by the positive control and multiplied by 100 to calculate the % receptor bound to the well in the presence of the inhibitor. The reciprocal of this number is the % inhibition.
(§5) An ELISA assay was employed that uses recombinant fusion proteins composed of extracellular portions of the human selectins joined to human immunoglobulin heavy chain CH3, CH2, and hinge regions. See, for example, Walz et al., Science (1990) 250:1132; Aruffo et al., Cell (1991) 67:35; Aruffo et al., Proc. Natl. Acad. Sci. USA (1992) 89:2292. The assay is well known in the art, and generally consists of the following three steps:
(§6) II. Preparation of "multivalent" receptor of the Selectin-IgG chimera was carried out by combining the respective chimera 1 μg/ml) with biotin labelled goat F(ab')2 anti-human IgG (Fc specific) and streptavidin-alkaline phosphatase diluted 1:1000 in 1% BSA-PBS (1 mM calcium) and incubating at 37° C. for 15 min. This allowed the soluble multivalent receptor complex to form.
(§7) III. Potential inhibitors such as compounds of formula I or II were allowed to react with the soluble receptor at 37° C. for 45 min. This test assumes that optimal binding, between the soluble phase receptor complex and the inhibitor (non natural ligand), would have occurred within this time frame. This solution was then placed in the microtiter wells that were prepared in step I. The plate was incubated at 37° C. for 45 minutes to allow the soluble receptor to bind to its natural ligand. In the presence of a strong inhibitor only a few receptors should be free to bind to the microtiter plate coated with the natural ligand.
(§8) The positive control is the signal produced by the soluble receptor when it is allowed to react with 2,3 sLe^x glycolipid in the microtiter wells in the absence of any inhibitor. This was considered 100% binding. […]
Background: An ELISA detects its analyte on a solid surface through an enzyme-linked reagent.

The subject of test [1] is P-selectin. The experiment in a line: ELISA: inhibition of P-selectin-IgG chimera binding to 2,3 sLe^x glycolipid. As to conditions: inhibition of binding to 2,3 sLex glycolipid. Details: species or system human.
Excerpt: as §1, §2, §3, §4, §5, §6, §7, §8

Test [2] relates to P-selectin. The experiment in a line: Flow cytometric assay: inhibition of P-selectin-IgG binding to HL-60 cells. Further details: unit of the concentration uncertain. Type of test: cell-based, human. As for the experimental part: The interaction of P-selectin and its cellular ligand was studied using a flow cytometric assay (Erbe, D. V. et al., J. Cell Biol. (1993) 120:1227). HL60 cells (maintained in high glucose DME plus 10% Hyclone FBS) were used in this assay. Before staining with P-selectin-IgG the cells were preincubated in Dulbecco's PBS/1% BSA/0.1% sodium azide/1% normal rabbit serum (staining medium) for 30-60 mins on ice. After this initial incubation, 1 μg of P-selectin-IgG was added to 100 μl aliquots of 10^6 cells and incubated for 30-60 mins on ice. The cells were when washed with staining medium and resuspended in 100 μl of staining medium to which was added 2 μl of a phycoerythrin-conjugated F(ab')^2 goat anti-human IgG (Fc specific). The cells were incubated for 15-30 mins on ice, washed twice with staining medium, and resuspended in 0.5 ml of staining medium before flow cytometric analysis on a FACScan (Becton Dickinson & Co., Mountain View, Calif.). To determine that the staining was an interaction of P-selectin with its ligand, the staining was also done in the presence of 10 mM EGTA. To determine the protease sensitivity and the requirement for sialic acid of this interaction, HL-60 cells in D-PBS and 1% BSA were incubated with either trypsin or Arthrobacter or Clostridium sialidases at 37° C. before resuspending in staining medium. To examine the ability of various carbohydrates to inhibit staining, 50 μg/ml fucoidin (Sigma Immunochemicals, St. Louis, Mo.), 50 μg/ml dextran sulfate (Pharmacia Fine Chemicals, Piscataway, N.J.), 10 mg/ml mannose-1-phosphate (Sigma Immunochemicals), or 10 mg/ml mannose-6-phosphate (Sigma Immunochemicals) was added to cells immediately before the addition of the P-selectin chimera. Each carbohydrate was then present until the cells were washed before the addition of the second stage antibody. A potential complication of this FACS assay arose from the use of selectin-IgG chimeras to stain cells which bear human IgG Fc receptors (FcγR; Fanger, M. W., et al., Immunol. Today (1989) 10:92). Adding rabbit IgG (in the form of normal rabbit serum) to the assay medium blocked this binding in most cases.

The next test has as its system E-selectin. The experiment in a line: ELISA: inhibition of E-selectin-IgG chimera binding to 2,3 sLe^x glycolipid. Particulars: for pIC50: inhibition of binding to 2,3 sLex glycolipid. Further details: species or system human.
Excerpt: as §1, §2, §3, §4, §5, §6, §7, §8

Take `C[C@@H]1O[C@@H](OCCCCCCOS(=O)(=O)O)[C@@H](O)[C@H](O)[C@@H]1O` [Compound 77, 6-O-sulfo-hexanyl-α-L-fucopyranoside]: the pIC50 is 2.52 to 2.70 in the test with L-selectin, roughly 3.30 in the test with P-selectin [1] and 2.52 to 2.70 with E-selectin. Further, the figures for the “Inhibition (%) of P-selectin-IgG binding to HL-60 cells” value with P-selectin [2] (10 (unit uncertain)), in the test with P-selectin [2] (100 (unit uncertain)) and with P-selectin [2] (200 (unit uncertain)) were 50%, 50% and 60%, respectively.

Turning to `C[C@@H]1O[C@@H](CCc2cccc(C(=O)NC(Cc3ccccc3)C(=O)O)c2)[C@@H](O)[C@H](O)[C@@H]1O` (stereo partly drawn) [Compound 74, 1-Deoxy-1-α-(m-Carboxy-Phenylethyl)-L-Fucose-Phenylalanine Amide], the pIC50 in the test on L-selectin, in the test on P-selectin [1] and in the test on E-selectin was less than 2.40 each time.

`COc1ccc(-c2c(C(=O)O)oc3cc(OCC[C@@H]4O[C@@H](C)[C@@H](O)[C@@H](O)[C@@H]4O)cc(O)c3c2=O)cc1` [Compound 54, 2-Carboxy-5-Hydroxy-7-(1-Deoxy-1-α-Fucosyl-Ethyleneoxy)-4-Methoxy Isoflavone]: the pIC50 with L-selectin is less than 2.40; in the test on P-selectin [1], greater than 3.30; with E-selectin, greater than 3.30.

On to `CC(=O)N[C@H]1[C@H]([C@H](O)[C@H](O)CO)OC(OCCCCCCOC2O[C@@H](C)[C@@H](O)[C@@H](O)[C@@H]2O)(C(=O)O)C[C@@H]1O` (stereo partly drawn) [Compound 14, O-Hexamethylene linked α,β-NeuNAc and α,β-L-Fucopyranose], for which the “inhibition of L-selectin binding to 2,3 sLe^x glycolipid” value with L-selectin is reported as “inhibit L-selectin binding in a concentration dependent manner”. Besides, in the test on E-selectin (FIG. 4, result in words), the “inhibition of E-selectin binding to 2,3 sLe^x glycolipid” value is given as “inhibit E-selectin binding to 2,3 sLe^x glycolipid”.

As for `C[C@@H]1O[C@@H](CCOc2ccccc2C(=O)O)[C@@H](O)[C@H](O)[C@@H]1O` [Compound 68, 1-Deoxy-1-α-(o-Carboxy-Phenoxyethyl)-L-Fucose], the pIC50 was less than 2.40 with L-selectin, greater than 3.30 in the test with P-selectin [1] and roughly 2.40 in the test on E-selectin.

Take `C[C@@H]1O[C@@H](CCOc2ccc(C(=O)O)cc2)[C@@H](O)[C@H](O)[C@@H]1O` [Compound 67, 1-Deoxy-1-α-(p-Carboxy-Phenoxyethyl)-L-Fucose]: the pIC50 in the test with L-selectin was less than 2.70; with P-selectin [1], greater than 3.30; with E-selectin, greater than 3.30.

Consider `C[C@@H]1O[C@@H](CCc2ccc(C(=O)NC(Cc3ccccc3)C(=O)O)cc2)[C@@H](O)[C@H](O)[C@@H]1O` (stereo partly drawn) [Compound 75, 1-Deoxy-1-α-(p-Carboxy-Phenylethyl)-L-Fucose-Phenylalanine Amide], for which the pIC50 with L-selectin is less than 2.40; in the test with P-selectin [1], 2.40; with E-selectin, less than 2.40.

As for `C[C@@H]1O[C@@H](CCOc2cccc(C(=O)O)c2)[C@@H](O)[C@H](O)[C@@H]1O` [Compound 69, 1-Deoxy-1-α-(m-Carboxy-Phenoxyethyl)-L-Fucose], the negative logarithm of the IC50 (pIC50) with L-selectin, with P-selectin [1] and in the test on E-selectin was less than 2.40 throughout.

`C[C@@H]1O[C@@H](CCOc2ccc3cc(C(=O)O)ccc3c2)[C@@H](O)[C@H](O)[C@@H]1O` [Compound 51, 1-Deoxy-1-α-(2-Carboxy-Naphthyl-6-Oxyethyl)-L-Fucose]: the values for the negative logarithm of the IC50 (pIC50) in the test with L-selectin, in the test with P-selectin [1] and in the test with E-selectin were greater than 3.00, greater than 3.30 and greater than 3.30, respectively.

For the compound `C[C@@H]1O[C@@H](CCOc2ccc3cc(OCC[C@@H]4O[C@@H](C)[C@@H](O)[C@@H](O)[C@@H]4O)c(C(=O)O)cc3c2)[C@@H](O)[C@H](O)[C@@H]1O` [Compound 57, 3,7-Di-(1-Deoxy-1-α-Fucosyl-Ethyleneoxy)-2-Naphthoic Acid], the pIC50 with L-selectin is roughly 2.70; with P-selectin [1], greater than 3.30; in the test on E-selectin, less than 2.40.

Consider `CC(=O)NC1C(O)CC(OC2C(O)C(CO)OC(OCCOC3OC(C)C(O)C(O)C3O)C2O)(C(=O)O)OC1C(O)C(O)CO` [Compound 28, [O-(α-L-fucopyranosyl)-ethyl]3-O-(α-Neu5Ac)-β-D-galactopyranoside], for which, in the test on E-selectin, the pIC50 is less than 2.40.

On to `CC(=O)N[C@H]1[C@H]([C@H](O)[C@H](O)CO)OC(OCCCCCCOC2O[C@@H](C)[C@@H](O)[C@@H](O)[C@@H]2O)(C(=O)O)C[C@@H]1O` (stereo partly drawn) [Compound 15, O-Hexamethylene linked α,β-NeuNAc and α,β-L-Fucopyranose], for which the “inhibition of L-selectin binding to 2,3 sLe^x glycolipid” value in the test with L-selectin is “blocks L-selectin binding at concentrations lower than 7 and 14”.

As to `C[C@@H]1O[C@@H](CCOc2cc3c(OCC[C@@H]4O[C@@H](C)[C@@H](O)[C@@H](O)[C@@H]4O)cccc3cc2C(=O)O)[C@@H](O)[C@H](O)[C@@H]1O` [Compound 58, 3,5-Di-(1-Deoxy-1-α-Fucosyl-Ethyleneoxy)-2-Naphthoic Acid], the pIC50 was roughly 2.40 in the test with L-selectin, 2.70 in the test with P-selectin [1] and less than 2.40 in the test on E-selectin.

On to `COC(=O)C(C)c1ccc2cc(OCC[C@@H]3O[C@@H](C)[C@@H](OC(C)=O)[C@@H](OC(C)=O)[C@@H]3OC(C)=O)ccc2c1` (stereo partly drawn) [Compound 60], for which the pIC50 was 2.40 in the test on L-selectin, less than 2.70 in the test with P-selectin [1] and less than 2.40 in the test on E-selectin.

For `CC(C(=O)OCC1CO1)c1ccc2cc(OCC(O)CO)ccc2c1` (stereo not drawn) [Compound 64], the pIC50 in the test with L-selectin, in the test with P-selectin [1] and in the test on E-selectin was less than 2.40 in each case.

In the case of `CCCOCC(CO[C@@H]1O[C@H](CO)[C@H](O)[C@H](OC(C)C(=O)O)[C@H]1O)O[C@@H]1O[C@@H](C)[C@@H](O)[C@@H](O)[C@@H]1O` (stereo partly drawn) [Compound 32, 1-O-(3-O-α-carboxyethyl-β-D-galactopyranosyl)-2-O-(α-L-fucopyranosyl)-3-O-(n-propyl)-propane], the pIC50 is no less than 2.40 in the test with L-selectin and 2.70 in the test with E-selectin.

As to `C[C@@H]1O[C@@H](CCc2ccccc2C(=O)NC(Cc2ccccc2)C(=O)O)[C@@H](O)[C@H](O)[C@@H]1O` (stereo partly drawn) [Compound 76, 1-Deoxy-1-α-(o-Carboxy-Phenylethyl)-L-Fucose-Phenylalanine Amide], the pIC50 in the test on L-selectin, with P-selectin [1] and in the test with E-selectin was less than 2.40 in each case.
